Experimental data as given in patent publication US8399419B2, “Antibacterial aminoglycoside analogs” (Achaogen, Inc., priority 2008, dated 2013).
Converted amounts (≈) assume the structure as drawn.

Experiments:
E. coli ATCC 25922 = assay: MIC assay (CLSI broth microdilution), AECO001; format: cell-based; details: AECO001 is ATCC25922 (E. coli), Mueller Hinton Broth, 35 C, 20 hours; for MIC: Escherichia coli
Experimental: (§1) Minimum inhibitory concentrations (MIC) were determined by reference Clinical and Laboratory Standards Institute (CLSI) broth microdilution methods per M7-A7 [2006]. Quality control ranges utilizing E. coli ATCC 25922, P. aeruginosa ATCC 27853 and S. aureus ATCC 29213, and interpretive criteria for comparator agents were as published in CLSI M100-S17 [2007]. Briefly, serial two-fold dilutions of the test compounds were prepared at 2× concentration in Mueller Hinton Broth. The compound dilutions were mixed in 96-well assay plates in a 1:1 ratio with bacterial inoculum. The inoculum was prepared by suspension of a colony from an agar plate that was prepared the previous day. Bacteria were suspended in sterile saline and added to each assay plate to obtain a final concentration of 5×10^5 CFU/mL. The plates were incubated at 35 C for 20 hours in ambient air.

P. aeruginosa ATCC 27853 = assay: MIC assay (CLSI broth microdilution), APAE001; format: cell-based; details: APAE001 is ATCC27853 (P. aeruginosa), Mueller Hinton Broth, 35 C, 20 hours; for MIC: Pseudomonas aeruginosa
Experimental: as §1

MIC (E. coli ATCC 25922) [µg/mL]	MIC (P. aeruginosa ATCC 27853) [µg/mL]	Molecule	MIC AECO001 (E. coli ATCC 25922)	MIC APAE001 (P. aeruginosa ATCC 27853)
≤ 1	≤ 1	NC[C@@H]1CC[C@@H](N)[C@@H](O[C@H]2[C@H](O[C@@H]3O[C@H](CO)[C@@H](O[C@H]4O[C@@H](CN)CC[C@H]4N)[C@H]3O)[C@@H](O)[C@H](NC(=O)[C@@H](O)C(F)(F)CN)C[C@@H]2N)O1 [Example 26/Compound 6, 3′,4′,3′″,4′″-tetra-deoxy-1-(4-amino-3,3-bisfluoro-2(R)-hydroxy-butyryl)-neomycin]	–	–
1 to 16 (≈ 1.53 to 24.5 µM)	> 16	NCC[C@H](O)C(=O)N[C@@H]1C[C@H](N)[C@@H](O[C@H]2O[C@H](CO)CC[C@H]2N)[C@H](O[C@@H]2O[C@H](CO)[C@@H](O[C@H]3O[C@@H](CN)CC[C@H]3N)[C@H]2O)[C@H]1O [Example 1/Compound 16, 3′,4′,3′″,4′″-tetradeoxy-1-(4-amino-2(S)-hydroxy-butyryl)-paromomycin]	–	–
1 to 16 (≈ 1.44 to 23.1 µM)	≤ 1	N=C(N)NCC[C@H](O)C(=O)N[C@@H]1C[C@H](N)[C@@H](O[C@H]2O[C@H](CN)CC[C@H]2N)[C@H](O[C@@H]2O[C@H](CO)[C@@H](O[C@H]3O[C@@H](CN)CC[C@H]3N)[C@H]2O)[C@H]1O [Example 17/Compound 4, 3′,4′,3′″,4′″-tetra-deoxy-1-(2(S)-hydroxy-4-guanidino-butyryl)-neomycin]	–	–
≤ 1	≤ 1	NC[C@@H]1CC[C@@H](N)[C@@H](O[C@H]2[C@H](O[C@@H]3O[C@H](CO)[C@@H](O[C@H]4O[C@@H](CN)CC[C@H]4N)[C@H]3O)[C@@H](O)[C@H](NC(=O)[C@@H](O)[C@@H](O)CN)C[C@@H]2N)O1 [Example 28/Compound 6, 3′,4′,3′″,4′″-tetra-deoxy-1-(4-amino-3,2-(S,S)-bis-hydroxy-butyryl)-neomycin]	–	–
≤ 1	≤ 1	NC[C@@H]1CC[C@@H](N)[C@@H](O[C@H]2[C@H](O[C@@H]3O[C@H](CO)[C@@H](O[C@H]4O[C@@H](CN)CC[C@H]4N)[C@H]3O)[C@@H](O)[C@H](NC(=O)[C@@H](O)[C@H](F)CN)C[C@@H]2N)O1 [Example 24/Compound 8, 3′,4′,3′″,4′″-tetra-deoxy-1-(4-amino-3(R)-fluoro-2(R)-hydroxy-butyryl)-neomycin]	–	–
1 to 16 (≈ 1.53 to 24.5 µM)	≤ 1	NCC[C@H](O)C(=O)N[C@@H]1C[C@H](N)[C@@H](O[C@H]2O[C@H](CN)CC[C@H]2N)[C@H](O[C@@H]2O[C@H](CO)[C@@H](O[C@H]3O[C@@H](CN)CC[C@H]3N)[C@H]2O)[C@H]1O [Example 4/Compound 5, 3′,4′,3′″,4′″-tetra-dehydro-1-(4-amino-2(S)-hydroxy-butyryl)-neomycin]	–	–
1 to 16 (≈ 1.61 to 25.7 µM)	1 to 16 (≈ 1.61 to 25.7 µM)	NC[C@@H]1CC[C@@H](N)[C@@H](O[C@H]2[C@H](O[C@@H]3O[C@H](CO)[C@@H](O[C@H]4O[C@@H](CN)CC[C@H]4N)[C@H]3O)[C@@H](O)[C@H](NCCC(N)=O)C[C@@H]2N)O1 [Example 11/Compound 3, 3′,4′,3′″,4′″-tetra-deoxy-1-(3-propionamide)-neomycin]	–	–
1 to 16 (≈ 1.57 to 25.1 µM)	1 to 16 (≈ 1.57 to 25.1 µM)	NC[C@@H]1CC[C@@H](N)[C@@H](O[C@H]2[C@H](O[C@@H]3O[C@H](CO)[C@@H](O[C@H]4O[C@@H](CN)CC[C@H]4N)[C@H]3O)[C@@H](O)[C@H](NC(=O)[C@@H](N)CO)C[C@@H]2N)O1 [Example 20/Compound 3, 3′,4′,3′″,4′″-tetra-deoxy-1-(2(S)-amino-3-hydroxy-propionyl)-neomycin]	–	–
1 to 16 (≈ 1.58 to 25.3 µM)	> 16	N#CCCC(=O)N[C@@H]1C[C@H](N)[C@@H](O[C@H]2O[C@H](CN)CC[C@H]2N)[C@H](O[C@@H]2O[C@H](CO)[C@@H](O[C@H]3O[C@@H](CN)CC[C@H]3N)[C@H]2O)[C@H]1O [Example 14/Compound 3, 3′,4′,3′″,4′″-tetra-deoxy-1-(3-cyano-propionyl)-neomycin]	–	–
1 to 16 (≈ 1.57 to 25.1 µM)	≤ 1	NC[C@@H]1CC[C@@H](N)[C@@H](O[C@H]2[C@H](O[C@@H]3O[C@H](CO)[C@@H](O[C@H]4O[C@@H](CN)CC[C@H]4N)[C@H]3O)[C@@H](O)[C@H](NC(=O)[C@@H](O)CN)C[C@@H]2N)O1 [Example 13/Compound 4, 3′,4′,3′″,4′″-tetra-deoxy-1-(2(S)-hydroxy-3-amino-propionyl)-neomycin]	–	–
1 to 16 (≈ 1.65 to 26.3 µM)	1 to 16 (≈ 1.65 to 26.3 µM)	NCC(=O)N[C@@H]1C[C@H](N)[C@@H](O[C@H]2O[C@H](CN)CC[C@H]2N)[C@H](O[C@@H]2O[C@H](CO)[C@@H](O[C@H]3O[C@@H](CN)CC[C@H]3N)[C@H]2O)[C@H]1O [Example 19/Compound 3, 3′,4′,3′″,4′″-tetra-deoxy-1-(2-aminoacetyl)-neomycin]	–	–

More lines, now with the values behind:

Molecule	MIC (E. coli ATCC 25922) [µg/mL]	MIC (P. aeruginosa ATCC 27853) [µg/mL]	MIC AECO001 (E. coli ATCC 25922)	MIC APAE001 (P. aeruginosa ATCC 27853)
NC[C@H]1CC[C@@H](N)[C@@H](O[C@H]2[C@@H](O)[C@H](O[C@@H]3[C@@H](O)[C@H](N)C[C@H](N)[C@H]3O[C@H]3O[C@H](CO)CC[C@H]3N)O[C@@H]2CO)O1 [Example 2/Compound 8]	1 to 16 (≈ 1.81 to 29 µM)	> 16	–	–
NCCCS(=O)(=O)N[C@@H]1C[C@H](N)[C@@H](O[C@H]2O[C@H](CN)CC[C@H]2N)[C@H](O[C@@H]2O[C@H](CO)[C@@H](O[C@H]3O[C@@H](CN)CC[C@H]3N)[C@H]2O)[C@H]1O [Example 7/Compound 4]	1 to 16 (≈ 1.49 to 23.8 µM)	≤ 1	–	–
NC[C@@H]1CC[C@@H](N)[C@@H](O[C@H]2[C@H](O[C@@H]3O[C@H](CO)[C@@H](O[C@H]4O[C@@H](CN)CC[C@H]4N)[C@H]3O)[C@@H](O)[C@H](NC(CO)CO)C[C@@H]2N)O1 [Example 21/Compound 3, 3′,4′,3′″,4′″-tetra-deoxy-1-(2-hydroxy-1-hydroxymethyl-ethyl)-neomycin]	1 to 16 (≈ 1.6 to 25.6 µM)	1 to 16 (≈ 1.6 to 25.6 µM)	–	–
NCC[C@H](O)C(=O)N[C@@H]1C[C@H](N)[C@@H](O[C@H]2O[C@H](CN)C=C[C@H]2N)[C@H](O[C@@H]2O[C@H](CO)[C@@H](O[C@H]3O[C@@H](CN)C=C[C@H]3N)[C@H]2O)[C@H]1O [Example 5/Compound 7]	1 to 16 (≈ 1.54 to 24.7 µM)	≤ 1	–	–
NC[C@@H]1CC[C@@H](N)[C@@H](O[C@H]2[C@H](O[C@@H]3O[C@H](CO)[C@@H](O[C@H]4O[C@@H](CN)CC[C@H]4N)[C@H]3O)[C@@H](O)[C@H](N)C[C@@H]2N)O1 [Example 3/Compound 6, 3′,4′,3′″,4′″-tetra-deoxy-neomycin]	≤ 1	≤ 1	–	–
NC[C@@H]1CC[C@@H](N)[C@@H](O[C@H]2[C@H](O[C@@H]3O[C@H](CO)[C@@H](O[C@H]4O[C@@H](CN)CC[C@H]4N)[C@H]3O)[C@@H](O)[C@H](NC(=O)C3(O)CNC3)C[C@@H]2N)O1 [Example 10/Compound 4]	≤ 1	≤ 1	–	–
NC[C@@H]1CC[C@@H](N)[C@@H](O[C@H]2[C@H](O[C@@H]3O[C@H](CO)[C@@H](O[C@H]4O[C@@H](CN)CC[C@H]4N)[C@H]3O)[C@@H](O)[C@H](NCc3cccc(O)c3)C[C@@H]2N)O1 [Example 16/Compound 3, 3′,4′,3′″,4′″-tetra-deoxy-1-(3-hydroxybenzyl)-neomycin]	1 to 16 (≈ 1.52 to 24.4 µM)	1 to 16 (≈ 1.52 to 24.4 µM)	–	–
3′,4′,3′″,4′″-tetra-deoxy-1-(3-amino-propionyl)-neomycin [Example 14/Compound 4]	–	–	B (MIC's of greater than 1.0 μg/mL to 16.0 μg/mL = B)	B (MIC's of greater than 1.0 μg/mL to 16.0 μg/mL = B)
